Reference: US6469028B1, “Synthesis and use of retinoid compounds having negative hormone and/or anatgonist activities” (Allergan, Inc., priority 1995, dated 2002)

Assays:
[1] = molecular target: T1, RARα (Homo sapiens, UniProt P10276); test: Holoreceptor transactivation assay; format: cell-based; parameters: expressed in transfected cells; host or cells: CV1 cells; conditions: relative to all trans retinoic acid; read-out: Transactivation Assay Efficacy (% of RA activity) RARα
T1 sequence (P10276 1-462): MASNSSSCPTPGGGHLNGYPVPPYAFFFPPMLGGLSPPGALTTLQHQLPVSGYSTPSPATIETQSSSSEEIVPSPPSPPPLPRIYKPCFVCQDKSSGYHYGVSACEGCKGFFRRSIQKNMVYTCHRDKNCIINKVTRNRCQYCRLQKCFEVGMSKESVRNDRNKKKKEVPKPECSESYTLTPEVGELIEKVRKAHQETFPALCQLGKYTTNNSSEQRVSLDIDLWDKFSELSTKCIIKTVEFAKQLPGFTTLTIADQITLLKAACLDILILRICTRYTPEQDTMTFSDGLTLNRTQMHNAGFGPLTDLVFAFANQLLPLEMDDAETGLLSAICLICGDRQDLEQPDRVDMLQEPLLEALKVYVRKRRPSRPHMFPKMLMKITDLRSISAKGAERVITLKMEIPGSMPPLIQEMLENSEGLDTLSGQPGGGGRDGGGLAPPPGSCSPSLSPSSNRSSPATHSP

[2] = molecular target: T2, RARγ (Homo sapiens, UniProt P13631); test: Holoreceptor transactivation assay; format: cell-based; parameters: expressed in transfected cells; host or cells: CV1 cells; conditions: relative to all trans retinoic acid; read-out: Transactivation Assay Efficacy (% of RA activity) RARγ
T2 sequence (P13631 1-454): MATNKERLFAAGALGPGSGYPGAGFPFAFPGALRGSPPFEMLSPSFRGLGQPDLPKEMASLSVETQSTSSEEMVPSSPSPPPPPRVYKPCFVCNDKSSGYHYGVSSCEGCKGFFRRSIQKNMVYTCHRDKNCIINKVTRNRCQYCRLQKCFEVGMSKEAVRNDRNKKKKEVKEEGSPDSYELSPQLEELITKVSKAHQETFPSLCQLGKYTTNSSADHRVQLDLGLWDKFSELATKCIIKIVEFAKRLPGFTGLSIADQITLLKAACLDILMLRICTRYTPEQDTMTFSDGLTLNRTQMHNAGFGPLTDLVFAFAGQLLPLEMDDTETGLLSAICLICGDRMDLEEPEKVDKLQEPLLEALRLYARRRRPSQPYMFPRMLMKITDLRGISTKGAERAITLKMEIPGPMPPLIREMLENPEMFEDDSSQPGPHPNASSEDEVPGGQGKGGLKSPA

Row | Emax [1] [%] | Emax [2] [%] | Structure (SMILES)
1 | 2 | 0 | CC(C)(C)c1ccc(C2=CCC(C)(C)c3ccc(C#Cc4ccc(C(=O)O)cc4)cc32)cc1 [Compound 61, 4-[(5,6-Dihydro-5,5-dimethyl-8-(4-(1,1-dimethylethyl)phenyl)-2-naphthalenyl)ethynyl]benzoic acid]
2 | 2 | 2 | CCc1ccc(C2=CCC(C)(C)c3ccc(C#Cc4ccc(C(=O)O)cc4)cc32)cc1 [Compound 21, 4-[(5,6-Dihydro-5,5-dimethyl-8-(4-ethylphenyl)-2-naphthalenyl)ethynyl]benzoic acid]
3 | 0 | 2 | Cc1ccc(C2=CCC(C)(C)c3cc(C(=O)C=Cc4ccc(C(=O)O)cc4)ccc32)cc1 [Compound 101, 4-[3-oxo-3-(7,8-dihydro-5-(4-methylphenyl)-8,8-dimethyl-2-naphthalenyl)-1-propenyl]-benzoic acid]
